Assay: toxicity in vivo (lethality)
Method: The formula I compounds may be administered in any convenient dosage form, with the preferred formulations adapted for oral (PO) or intravenous (IV) administration. Since the water solubility of the compounds exceeds 200 mg/mL, formulations are not anticipated to be difficult to make.

O=S(=O)([O-])CCSSCCS(=O)(=O)[O-].[Na+].[Na+] [Dimesna, Disodium 2,2′-dithiobis ethane sulfonate]
toxicity compared with common table salt: less toxic than common table salt | amount not causing a single death in vivo (IV): exceeding 5000 mg/kg

Source: patent US7282602B2, “Medicinal disulfide salts” (BioNumerik Pharmaceuticals, Inc., priority 2004, dated 2007)
